Results from patent US12030841B2, “Honokiol crystal forms, amorphous form and preparation thereof” (Chengdu Jinrui Foundation Biotech Co., Ltd., priority 2020, dated 2024).
Converted amounts (≈) assume the structure as drawn.

Columns and labels:
[1] = Stress tests (high temperature, high humidity, high-light irradiation), related substances by HPLC; type: physicochemical; conditions: for purity after the high humidity test: high humidity (relative humidity 92.5%, 25° C.); for purity after the high temperature test: high temperature (60° C.); for purity after intense light / high-light irradiation test: high-light irradiation (illuminance 45001×+5001×)
Description: Treating the honokiol crystal forms A, B and C under high temperature (60° C.), high humidity (relative humidity 92.5%, 25° C.) and high-light irradiation (illuminance 45001×+5001×), respectively, diluting with methanol, and investigating the changes of related substances through testing with HPLC.

[2] = Solubility test in PBS (saturated solution, HPLC external standard); type: physicochemical; conditions: shaking at 37 °C for 4 h, supernatant by HPLC
Description: Since the solubility of the drug directly affects the dissolution and oral bioavailability of the drug preparation, the inventor investigated the solubility of the honokiol crystal forms A, B and C in PBS. Preparing respective saturated solutions of the honokiol crystal forms A, B and C, shaking at 37 °C for 4 h, and centrifuging and transferring the supernatant into a high performance liquid chromatograph. At the same time, preparing a standard solution of the honokiol (source: China Institutes for Food and Drug Control, Batch No.: 110730-201915, ID: EH2H-BMTW), and using the external standard method for quantification.

Compound	purity before the stress test [1] [%]	purity after the high humidity test [1] [%]	purity after the high temperature test [1] [%]	purity after intense light / high-light irradiation test [1] [%]	solubility [2] [µg/mL]	solubility at 4 h ([2]; PBS, 37 °C, aqueous buffer, thermodynamic from solid) [µg/mL]
C=CCc1ccc(O)c(-c2ccc(O)c(CC=C)c2)c1 [honokiol crystal form A, 3′,5-di-2-propenyl-1,1′-biphenyl-2,4′-diphenol]	99.83	99.67	99.63	99.64	41.35 (≈ 155 µM)	–
C=CCc1ccc(O)c(-c2ccc(O)c(CC=C)c2)c1 [honokiol crystal form B, 3′,5-di-2-propenyl-1,1′-biphenyl-2,4′-diphenol]	99.88	99.70	99.70	99.60	–	43.7 (≈ 164 µM)
C=CCc1ccc(O)c(-c2ccc(O)c(CC=C)c2)c1 [honokiol crystal form C, 3′,5-di-2-propenyl-1,1′-biphenyl-2,4′-diphenol]	99.86	99.59	99.36	99.31	48.12 (≈ 181 µM)	–
